Source: patent publication US20170029355A1, “LABILE ESTERS OF AGROCHEMICALS FOR CONTROLLED RELEASE AND REDUCTION OF OFF-SITE MOVEMENT” (Monsanto Technology LLC, priority 2011, published 2017)
Read-outs that look alike come from different tables or passages of the source.

What was measured:
[1] = In vitro dicamba photo-release from photo-labile dicamba esters, tetrahydrofuran solvent (Example 26); format: physicochemical; details: THF, 0.1 mM ester
Procedure: (§1) This Example describes in vitro testing of dicamba photo-release by homogeneous solutions of photo-labile dicamba esters. The esters were dissolved in tetrahydrofuran (THF). Ester concentration was 0.1 mM. 25 ml of the solution was transferred to 22 mm tubes fabricated from graded seal quartz tubing with a 19/22 tapered seal at the top, which was closed with a tapered glass plug and secured with a plastic ring clamp. The solution was entirely below the quartz-to-glass transition, ensuring that the entire volume was exposed to the full spectrum.
(§2) The sealed tubes were placed in a Growth Chamber where they were exposed to simulated sunlight for 14 hours per day at 35° C. Dicamba concentrations in the solution were measured during the course of the photolysis.
(§3) A sample of the initial solution was reserved in a glass vial away from the light source and analyzed at the conclusion of the study, providing a measurement of the amount of dicamba present without illumination of the photolysis solution (the “dark control”).

broadleaf weeds = experiment: Control of broadleaf weeds by ester concentrates (statements of the description); format: in vivo; details: emulsifiable and suspension concentrates; Sesbania macrocarpa, morning glory, velvetleaf, Palmer amaranth, fat hen, sicklepod
[2] = In vitro dicamba photo-release from photo-labile dicamba esters, acetonitrile/10% water solvent (Example 27); format: physicochemical; details: acetonitrile containing 10% water
Procedure: as §1, §2, §3
This Example is another photolysis of photo-labile dicamba esters, but using acetonitrile containing 10% water by weight as the solvent. The experimental protocol is otherwise the same as in Example 18.

velvetleaf [3] = experiment: Greenhouse post-emergent control of velvetleaf by emulsifiable concentrates (Example 29); format: in vivo; details: three weeks after treatment
Procedure: (§4) The efficacy of some photo-labile ester formulations from Example 28 for post-emergent control of velvetleaf was tested in the greenhouse. All formulations were tested at rates of 140, 280, 420, and 560 g dicamba equivalent per hectare rates and compared to the diglycolamine salt of dicamba (CLARITY®) at the same rates and untreated control plants. The velvetleaf plants were 10-15 cm in height at the time of spraying. Percent control was evaluated three weeks after treatment.

velvetleaf [4] = experiment: Greenhouse post-emergent control of velvetleaf by emulsifiable concentrates (Example 37); format: in vivo; details: for pest or weed control at 140 g/ha / pest or weed control at 280 g/ha / pest or weed control at 420 g/ha / pest or weed control at 560 g/ha: Abutilon theophrasti, post-emergence, 504 h; for pest or weed control at 140 g/ha: read-out: % Control of velvetleaf, 140 g/ha; for pest or weed control at 280 g/ha: read-out: % Control of velvetleaf, 280 g/ha; for pest or weed control at 420 g/ha: read-out: % Control of velvetleaf, 420 g/ha; for pest or weed control at 560 g/ha: read-out: % Control of velvetleaf, 560 g/ha
Procedure: as §4
The methodology of Example 29 was used to evaluate the efficacy of several esters of dicamba which convert to dicamba by hydrolysis for post-emergent control of velvetleaf as emulsifiable concentrate formulations.

[5] = In vitro photo-release and hydrolytic release of dicamba in an aqueous medium (Example 36); format: physicochemical; details: 0.01 mM (0.005 mM for diesters); for Conversion to Dicamba, Dark, Day 0 / Conversion to Dicamba, Dark, Day 1 / Conversion to Dicamba, Dark, Day 2 / Conversion to Dicamba, Dark, Day 3 / Conversion to Dicamba, Dark, Day 4 / Conversion to Dicamba, Dark, Day 7 / Conversion to Dicamba, Dark, Day 14 / Conversion to dicamba, Dark, Day 10 / Conversion to Dicamba, Dark, Day 21 / Conversion to Dicamba, Dark, Day 28: amber (dark) bottle; for Conversion to Dicamba, Light, Day 0 / Conversion to Dicamba, Light, Day 1 / Conversion to Dicamba, Light, Day 2 / Conversion to Dicamba, Light, Day 3 / Conversion to Dicamba, Light, Day 4 / Conversion to Dicamba, Light, Day 7 / Conversion to Dicamba, Light, Day 14 / Conversion to dicamba, Light, Day 10 / Conversion to Dicamba, Light, Day 21 / Conversion to Dicamba, Light, Day 28: quartz tube
Procedure: This Example describes the determination of photo-lability and hydrolytic lability of dicamba esters in an aqueous medium. 1 mM solutions of the esters were prepared in acetonitrile (or […] solutions of dicamba diesters). The solutions were then diluted with deionized water to a concentration of 0.01 mM (or 0.005 mM for diesters). The solutions were then transferred to quartz tubes and amber bottles and held in a growth chamber by the procedure of Example 26. A 14-hour day was generally used at a constant temperature of 35° C. Hydrolytic activity was assessed by measuring the increase in dicamba concentration after day zero in the amber (dark) bottles. […] Photolysis manifested itself as increased conversion in the quartz tubes compared to the dark control.
This Example provides the results of an aqueous lability test following the protocol of Example 35 for several dicamba esters which convert to dicamba primarily by hydrolysis. As shown by the results in the table below, conversion of the dark controls generally equaled or exceeded conversion in the photolysis solutions.

SMILES: CCCCOc1ccc(C(=O)COC(=O)c2c(Cl)ccc(Cl)c2OC)cc1 [Ester 10, p-n-Butoxyphenacylmethyl Ester of Dicamba]
- Dark Control % dicamba ([1]; initial solution kept away from the light source, analyzed at conclusion of study): 8%
- Conversion to dicamba, 1 day ([1]; simulated sunlight 14 hours per day, 35° C., 1 day): 16%
- Conversion to dicamba, 2 days ([1]; simulated sunlight 14 hours per day, 35° C., 2 days): 15%
- Conversion to dicamba, 3 days ([1]; simulated sunlight 14 hours per day, 35° C., 3 days): 16%
- Conversion to dicamba, 5 days ([1]; simulated sunlight 14 hours per day, 35° C., 5 days): 19%
- Conversion to dicamba, 7 days ([1]; simulated sunlight 14 hours per day, 35° C., 7 days): 20%
- Conversion to dicamba, 9 days ([1]; simulated sunlight 14 hours per day, 35° C., 9 days): 29%
- Conversion to dicamba, 12 days ([1]; simulated sunlight 14 hours per day, 35° C., 12 days): 35%
- Conversion to dicamba, 15 days ([1]; simulated sunlight 14 hours per day, 35° C., 15 days): 35%
- control of a number of broadleaf weeds in field testing, in words (broadleaf weeds): proven effective
- Dark Control % dicamba ([2]; no illumination): 8%
- Conversion to dicamba, 1 day ([2]; simulated sunlight, 1 day): 17%
- Conversion to dicamba, 2 days ([2]; simulated sunlight, 2 days): 19%
- Conversion to dicamba, 3 days ([2]; simulated sunlight, 3 days): 20%
- Conversion to dicamba, 5 days ([2]; simulated sunlight, 5 days): 24%
- Conversion to dicamba, 7 days ([2]; simulated sunlight, 7 days): 28%
- Conversion to dicamba, 11 days ([2]; simulated sunlight, 11 days): 32%
- Conversion to dicamba, 13 days ([2]; simulated sunlight, 13 days): 31%
- Conversion to dicamba, 15 days ([2]; simulated sunlight, 15 days): 32%
- Conversion to dicamba, 19 days ([2]; simulated sunlight, 19 days): 33%
- % Control of velvetleaf, 140 g/ha (velvetleaf [3]; 140 g dicamba equivalent per hectare): 23%
- % Control of velvetleaf, 280 g/ha (velvetleaf [3]; 280 g dicamba equivalent per hectare): 33%
- % Control of velvetleaf, 420 g/ha (velvetleaf [3]; 420 g dicamba equivalent per hectare): 28%
- % Control of velvetleaf, 560 g/ha (velvetleaf [3]; 560 g dicamba equivalent per hectare): 33%

SMILES: COc1ccc(COC(=O)c2c(Cl)ccc(Cl)c2OC)cc1 [Ester 29a, 4-methoxybenzyl ester of dicamba]
- pest or weed control at 140 g/ha (velvetleaf [4]; greenhouse, 140 g/ha, Example 37): 30%
- pest or weed control at 280 g/ha (velvetleaf [4]; greenhouse, 280 g/ha, Example 37): 55%
- pest or weed control at 420 g/ha (velvetleaf [4]; greenhouse, 420 g/ha, Example 37): 74.2%
- pest or weed control at 560 g/ha (velvetleaf [4]; greenhouse, 560 g/ha, Example 37): 81.7%
- Conversion to Dicamba, Dark, Day 0 [5]: 27%
- Conversion to Dicamba, Dark, Day 1 [5]: 81%
- Conversion to Dicamba, Dark, Day 2 [5]: 83%
- Conversion to Dicamba, Dark, Day 3 [5]: 83%
- Conversion to Dicamba, Dark, Day 4 [5]: 80%
- Conversion to Dicamba, Dark, Day 7 [5]: 84%
- Conversion to Dicamba, Dark, Day 14 [5]: 85%
- Conversion to Dicamba, Light, Day 0 [5]: 27%
- Conversion to Dicamba, Light, Day 1 [5]: 75%
- Conversion to Dicamba, Light, Day 2 [5]: 74%
- Conversion to Dicamba, Light, Day 3 [5]: 75%
- Conversion to Dicamba, Light, Day 4 [5]: 74%
- Conversion to Dicamba, Light, Day 7 [5]: 76%
- Conversion to Dicamba, Light, Day 14 [5]: 77%

SMILES: C=C(C(=O)OCC)C(OC(=O)c1c(Cl)ccc(Cl)c1OC)c1ccccc1[N+](=O)[O-] (stereo not shown) [Ester 31a]
- Conversion to Dicamba, Dark, Day 0 [5]: 16%
- Conversion to Dicamba, Dark, Day 1 [5]: 37%
- Conversion to Dicamba, Dark, Day 2 [5]: 43%
- Conversion to Dicamba, Dark, Day 3 [5]: 43%
- Conversion to Dicamba, Dark, Day 4 [5]: 44%
- Conversion to Dicamba, Dark, Day 7 [5]: 49%
- Conversion to dicamba, Dark, Day 10 [5]: 50%
- Conversion to Dicamba, Dark, Day 14 [5]: 51%
- Conversion to Dicamba, Dark, Day 21 [5]: 49%
- Conversion to Dicamba, Dark, Day 28 [5]: 50%
- Conversion to Dicamba, Light, Day 0 [5]: 16%
- Conversion to Dicamba, Light, Day 1 [5]: 45%
- Conversion to Dicamba, Light, Day 2 [5]: 48%
- Conversion to Dicamba, Light, Day 3 [5]: 46%
- Conversion to Dicamba, Light, Day 4 [5]: 45%
- Conversion to Dicamba, Light, Day 7 [5]: 46%
- Conversion to dicamba, Light, Day 10 [5]: 50%
- Conversion to Dicamba, Light, Day 14 [5]: 51%
- Conversion to Dicamba, Light, Day 21 [5]: 53%
- Conversion to Dicamba, Light, Day 28 [5]: 53%

SMILES: COc1c(Cl)ccc(Cl)c1C(=O)Oc1ccc(=O)n(CCC=O)n1 [Ester 33a]
- pest or weed control at 140 g/ha (velvetleaf [4]): 15.8%
- pest or weed control at 280 g/ha (velvetleaf [4]): 27.5%
- pest or weed control at 420 g/ha (velvetleaf [4]): 22.5%
- pest or weed control at 560 g/ha (velvetleaf [4]): 30.8%
- post-emergent efficacy on velvetleaf compared with the salt, in words (velvetleaf [4]; greenhouse, emulsifiable concentrates): reduced post-emergent efficacy
- Conversion to Dicamba, Dark, Day 0 [5]: 13%
- Conversion to Dicamba, Dark, Day 1 [5]: 15%
- Conversion to Dicamba, Dark, Day 2 [5]: 18%
- Conversion to Dicamba, Dark, Day 3 [5]: 18%
- Conversion to Dicamba, Dark, Day 4 [5]: 22%
- Conversion to Dicamba, Dark, Day 7 [5]: 21%
- Conversion to dicamba, Dark, Day 10 [5]: 28%
- Conversion to Dicamba, Dark, Day 14 [5]: 37%
- Conversion to Dicamba, Dark, Day 21 [5]: 50%
- Conversion to Dicamba, Dark, Day 28 [5]: 55%
- Conversion to Dicamba, Light, Day 0 [5]: 13%
- Conversion to Dicamba, Light, Day 1 [5]: 18%
- Conversion to Dicamba, Light, Day 2 [5]: 20%
- Conversion to Dicamba, Light, Day 3 [5]: 19%
- Conversion to Dicamba, Light, Day 4 [5]: 22%
- Conversion to Dicamba, Light, Day 7 [5]: 23%
- Conversion to dicamba, Light, Day 10 [5]: 30%
- Conversion to Dicamba, Light, Day 14 [5]: 42%
- Conversion to Dicamba, Light, Day 21 [5]: 53%
- Conversion to Dicamba, Light, Day 28 [5]: 57%

SMILES: CCOC(=O)CCn1nc(OC(=O)c2c(Cl)ccc(Cl)c2OC)ccc1=O [Ester 35a]
- pest or weed control at 140 g/ha (velvetleaf [4]): 35.8%
- pest or weed control at 280 g/ha (velvetleaf [4]): 60%
- pest or weed control at 420 g/ha (velvetleaf [4]): 85%
- pest or weed control at 560 g/ha (velvetleaf [4]): 87.5%
- Conversion to Dicamba, Dark, Day 0 [5]: 19%
- Conversion to Dicamba, Dark, Day 1 [5]: 66%
- Conversion to Dicamba, Dark, Day 2 [5]: 69%
- Conversion to Dicamba, Dark, Day 3 [5]: 68%
- Conversion to Dicamba, Dark, Day 4 [5]: 71%
- Conversion to Dicamba, Dark, Day 7 [5]: 74%
- Conversion to Dicamba, Dark, Day 14 [5]: 70%
- Conversion to Dicamba, Dark, Day 21 [5]: 70%
- Conversion to Dicamba, Dark, Day 28 [5]: 74%
- Conversion to Dicamba, Light, Day 0 [5]: 19%
- Conversion to Dicamba, Light, Day 1 [5]: 57%
- Conversion to Dicamba, Light, Day 2 [5]: 58%
- Conversion to Dicamba, Light, Day 3 [5]: 58%
- Conversion to Dicamba, Light, Day 4 [5]: 62%
- Conversion to Dicamba, Light, Day 7 [5]: 60%
- Conversion to Dicamba, Light, Day 14 [5]: 64%
- Conversion to Dicamba, Light, Day 21 [5]: 63%
- Conversion to Dicamba, Light, Day 28 [5]: 65%
